Data on two compounds can be found in patent publication US20250332397A1, “SYSTEMS AND METHODS FOR MICRONEEDLE THERAPEUTIC DELIVERY WITH ACOUSTIC SIGNALS” (THE TRUSTEES OF INDIANA UNIVERSITY, priority 2021, published 2025).

Data set [1] can be described thus: Ex vivo delivery in mice skin tissues (dye released, absorbance). The following applies: FIG. 10; 1 Mhz, duty cycle 15%, 4.2 w/cm^2; 30 s, 60 s, 180 s. The format is in vitro ADME, BALB/c mice. From the text:
The prepared RhB dye (or epinephrine) loaded acoustic patches (or passive patches) were inserted into the fresh hair removed skin tissues harvested from BALB/c mice, and removed from the mice skin tissues. The acoustic path treatment condition (frequency, 1 Mhz; duty cycle, 15%; energy density, 4.2 w/cm^2) was applied to three mouse skin tissues, while there was not acoustic stimulation for passive patch treatments. The mouse skin tissues after acoustic patch and passive treatments with three different treatment time (e.g., 30 s, 60 s, or 180 s) were analyzed.

The mark [2] stands for this setting: acoustic patch mediated delivery, mouse "B".

Protocol for anaphylactic mouse model: Olbumin from chicken egg white (OVA) was used as antigen to induce anaphylaxis, where OVA dosage could regulate the degree of anaphylaxis. Specifically, an OVA solution as an adjuvant was prepared in 1 mg/mL of OVA with 1 μg/mL of Pertussis toxin and 10 mg/mL of aluminum potassium sulfate in 0.9% saline. To sensitize mice, BALB/c mice were injected intraperitoneally with 100 μL of the adjuvant OVA solution. After 3 weeks, these actively sensitize mice were challenged with 10 mg/mL of the adjuvant OVA solution. To trigger the anaphylactic reaction, a 50 μL of 10 mg/mL OVA solution in 0.9% saline was injected intraperitoneally into a mouse. The whole anaphylactic process lasted for about 120 mins, and all the mice were sacrificed after the experimental procedures.
The mice during anaphylaxis were characterized via physiological parameters and symptoms including rectal temperature, movement score, respiratory rate, or blood histamine level. Rectal temperature was measured using a rectal probe for mice in every 2 min in real-time. Respiratory rate was measured through counting the breaths during every 20 seconds through observing the thoracic movement. Movement score was tested by rules as follows: (1) react actively after provoking; (2) slow in response after provoking; (3) no active response after provoking; (4) died. Blood histamine level was measured by testing whole blood samples through tail vein through an ELISA kit (Catalog No: IT6088, vendors). Samples were all restored in −80° C. refrigerator for later assessment of the concentration of histamine by an ELISA kit.
Mice were sensitized via intraperitoneal injection of chicken ovalbumin (OVA) and aluminum potassium sulfate adjuvant and triggered an acute allergic reaction by injecting OVA as an allergen after three weeks. […] We measured the core temperature and respiratory rate of the sensitized mice during the induction of anaphylaxis.

On to `CCN(CC)c1ccc2c(-c3ccc(S(=O)(=O)O)cc3S(=O)(=O)[O-])c3ccc(=[N+](CC)CC)cc-3oc2c1` [RhB dye, sulforhodamine B], for which, in data set [1], the “dye released into mouse skin over different delivery times, with acoustics vs without acoustics” value is listed as “increased delivery”.
Take `CNC[C@H](O)c1ccc(O)c(O)c1` [epinephrine]: in the data set on anaphylactic mouse model (setting [2]), the “allergic symptoms of mouse experiencing severe anaphylaxis” value is “relief from allergic symptoms” and the “body temperature of mouse experiencing severe anaphylaxis” value is on record as “immediate body temperature increase”. The “symptoms of anaphylaxis (hypothermia, reduced activity, opisthotonos)” value with anaphylactic mouse model (after intramuscular injection) was “obtained relief from these symptoms”.
